# Assays:
# [1] = test system: HLA-A*0201 human T cells; assay: IFN-γ ELISPOT of human T cells activated with BFA5/NYBR-1 peptide pools and single peptides; assay type: cell-based; conditions: for BFA5 peptides eliciting high IFN-γ release (>200 spots/100,000 cells): listing = result; for IFN-γ secretion in T cells from both donors: donors AP10 and AP31
# Method: A library of 100 peptides from the BFA5/NYBR-1 coding sequence that are predicted to be medium to high binders to HLA-A*0201 were designed using Rammensee and Parker algorithms. The library was sub-divided into 10 pools of ten peptides (see Table XI), and each pool was used to activate 10 different T cell cultures after pulsing peptides on to mature autologous dendritic cells.
# ELISPOT analysis was performed on human T-cell cultures activated through four rounds of stimulation with each pool of BFA5 peptides. In FIG. 13A, the numbers under the X-axis indicate the number of each peptide pool (1-10). Reactivity against a CMV pp65 peptide, and a Flu matrix peptide were used as positive controls for T-cell activation in the experiments. Each experiment was performed with PBMC and dendritic cells from a single HLA-A*0201^+ donor designated as “AP10”. […] Similar results were obtained for both BFA4 and BFA5/NYBR-1 with a different HLA-A*0201. […] Cultures having a reading of 600 spots have more than this number of spots.
# A large number of the BFA5 peptide pools of are reactive as shown by the high levels of IFN-γ production (FIG. 13A). Each reactive peptide pool was then separated into individual peptides and analyzed for immunogenicity using ELISPOT analysis to isolate single reactive BFA5 peptides. […] Similar results were obtained in two independent PBMC culture experiments.
# [2] = test system: BFA4; assay: Rabbit antibody titers after immunization with BFA4 22-mer peptides; assay type: in vivo
# From the text: For monitoring purposes, rabbit anti-BFA4 polyclonal antibodies were generated. Six peptides (22-mers) were designed and synthesized to elicit antibody response to BFA4, as shown below:
# Rabbits were immunized with the peptides, serum was isolated, and the following antibody titers were observed: […]
# [3] = test system: peptide-loaded human T2 lymphoma cell targets; assay: CTL killing of BFA4 peptide-pulsed target cells; assay type: cell-based; conditions: single BFA4 peptides, listing = result
# [4] = test system: peptide-loaded T2 cells; assay: 51Cr-release CTL assay with BFA5 peptide-activated human T cells; assay type: cell-based; conditions: for CTL activity in T cells from both donors: donors AP10 and AP31; for BFA5 peptides inducing CTL lysis of pulsed cells: Donor AP10, listing = result
# Method: In addition to ELISPOT analysis, human T cells activated by BFA5 peptides were assayed to determine their ability to function as CTL. The cells were activated using peptide-pulsed dendritic cells followed by CD40 ligand-activated B cells (5 rounds of stimulation). The experiment shown was performed with isolated PBMC from HLA-A*0201^+ donor AP31. Isolated T cells were tested in ^51Cr-release assays using peptide-loaded T2 cells. The % specific lysis at a 10:1, 5:1, and 1:1 T-cell to target ratio is shown for T2 cells pulsed with either pools of BFA5/NYBR-1 peptides or with individual peptides. […] CTL activity (percent specific lysis) induced by the control HIV peptide was generally <10%. Similar results were obtained with another PBMC donor expressing HLA-A*0201 (AP10). […]
# [5] = test system: Human PBMC from an HLA-A2.1 positive donor; assay: IFN-γ ELISPOT of human T cells activated with BFY3 peptide pools and deconvolution to single peptides; assay type: cell-based; conditions: BFY3 nonamer peptides; listing = result
# From the text: Human PBMC from an HLA-A2.1 positive donor designated AP31 were activated with autologous dendritic cells pulsed with different pools of 9-mer peptides from the BFY3 antigen (see Table I for list). The activated T cells were re-stimulated after 12 days with activated autologous CD40-ligand-activated B cells pulsed with the same respective peptide pools for another 8 to 10 days. This secondary activation was repeated 2 more time for a total of 4 stimulations. The activated T cells were isolated after the 4th stimulation and subjected to ELISPOT analysis for human IFN-γ production against their respective BFY3 peptide pools as shown. The blue bars show reactivity against the BFY3 peptide pools and the red bars are for an HLA-A2.1-binding HIV peptide as a negative control. Standard deviations are indicated. The experiment was repeated 2 times on activated T cells from different rounds of peptide stimulation with the similar results (FIG. 17A).
# The BFY3 peptide pools were deconvoluted and studied in IFN-γ ELISPOT assays. Stimulation was performed as described earlier for the other antigens described. After 4 rounds of stimulation, the T cells from each culture were harvested and subjected to ELISPOT analysis for IFN-γ production with each individual peptide in each pool. FIG. 17B illustrates individual peptide reactivity for each specific pool.
# [6] = test system: targets pulsed with corresponding peptide pools; assay: CTL killing of targets pulsed with BFY3 peptide pools or peptides; assay type: cell-based, human; conditions: for Peptides eliciting CTL activity (peptide pulsed targets): BFY3 nonamer peptides, listing = result; for recognition of single peptides by CTL: BFY3 peptides, peptide-pulsed targets
# Method: In addition to ELISPOT analysis, human T cells activated by BFY3 peptides were assayed for reactivity. Ten pools of peptides consisting often peptides per pool used to generate CTL. These 10 groups of effectors used to kill targets pulsed with corresponding peptide pools. […]
# [7] = test system: Non-transfected CosA2 cells; assay: Zeocin selection of non-transfected cells; assay type: cell-based; conditions: for confluency of surviving cells: three weeks
# Method: A stable transfection study was initiated to obtain stable clones of BFA4 expressing COS A2 cells. These cells are useful for in vitro stimulation assays pcDNA 3.1 zeo^R/BFA4 (2.5 μg and 20 μg), and pcDNA 3.1 zeo^R/BFA4/MycHis tag (2.5 μg) were used to study expression of BFA4). pGL3 Luciferase (2.5 μg) was used as a control vector to monitor transfection efficiency. The Gene porter reagent was used to facilitate transfection of DNA vectors. After 48 h post-transfection, whole cell extract were prepared by scraping cells in the cell lysis reagent (200 μl) and 1 cycle of freeze-thaw at −20° C./37° C. for first experiment. Transfected cells obtained from the second experiment were trypsinized, frozen stock established and cells were plated in increasing concentrations of Zeocin (0, 250, 500, 750 and 1000 μg/ml). Non-transfected CosA2cells survived at 60-80% confluency for three weeks at 100 μg/ml (Zeocin) and 10% confluency at 250 μg/ml (Zeocin).
# [8] = first-listed rabbit of the pair
# [9] = second-listed rabbit of the pair
compound,measurement,setting,value
KSQIEPAFH [CLP 3037],"BFA5 peptides eliciting high IFN-γ release (>200 spots/100,000 cells)",[1]; Donor AP31,KSQEPAFHI
ANGASKEKTKAPPNVKNEGPLNV [CLP2594],Titer (Bleed 2),[2]; [8],"409600, 409600"
same,Titer (Final Bleed),[2]; [8],"320000, 320000"
same,Titer (Bleed 2),[2]; [9],"409600, 409600"
same,Titer (Final Bleed),[2]; [9],"320000, 320000"
NMLAFSFPA [CLP 2426],Strong CTL Killing (listed as highly immunoreactive peptide),[3],NMLAFSFPA
YVPYPTFNL [CLP 2509],Strong CTL Killing (listed as highly immunoreactive peptide),[3],YVPYPTFNL
HLARPIYGL [CLP 2486],Strong CTL Killing (listed as highly immunoreactive peptide),[3],HLARPIYGL
ASLGLLTPV [CLP 2482],Strong CTL Killing (listed as highly immunoreactive peptide),[3],ASLGLLTPV
ILSVVAKLL [CLP 3011],IFN-γ secretion in T cells from both donors,[1],induce
same,CTL activity in T cells from both donors,[4],induce
KYKVTVAEV [CLP 3362],Peptides eliciting strong IFN-γ ELISPOT activity,[5],KYKVTVAEV
same,Peptides eliciting CTL activity (peptide pulsed targets),[6],KYKVTVAEV
same,recognition of single peptides by CTL,[6],Moderately recognized
FTTPDVDVL [CLP 2468],Strong CTL Killing (listed as highly immunoreactive peptide),[3],FTTPDVDVL
ALRICDIEL [CLP 3043],"BFA5 peptides eliciting high IFN-γ release (>200 spots/100,000 cells)",[1]; Donor AP10,ALRIQDIEL
SCLTHFNLI [CLP 3403],Peptides eliciting strong IFN-γ ELISPOT activity,[5],SCLTHFNLI
NGEQIIRRRTRKRLNPEALQAE [CLP2593],Titer (Bleed 2),[2]; [8],3200000
same,Titer (Final Bleed),[2]; [8],2560000
same,Titer (Bleed 2),[2]; [9],51200
same,Titer (Final Bleed),[2]; [9],160000
RLNPEALQA [CLP 2499],Strong CTL Killing (listed as highly immunoreactive peptide),[3],RLNPEALQA
SQYSGQLKV [CLP 3015],IFN-γ secretion in T cells from both donors,[1],induce
same,CTL activity in T cells from both donors,[4],induce
HLARDFGYV [CLP 3387],Peptides eliciting strong IFN-γ ELISPOT activity,[5],HLARDFGYV
same,Peptides eliciting CTL activity (peptide pulsed targets),[6],HLARDFGYV
same,recognition of single peptides by CTL,[6],strongly recognized
VAKPSEKNSNKSIPALQSSDSG [CLP2591],Titer (Bleed 2),[2]; [8],"400000, 400000"
same,Titer (Final Bleed),[2]; [8],"320000, 320000"
same,Titer (Bleed 2),[2]; [9],"400000, 400000"
same,Titer (Final Bleed),[2]; [9],"320000, 320000"
LNASLLGGV [CLP 3366],Peptides eliciting strong IFN-γ ELISPOT activity,[5],LNASLLGGV
MVRKKNPPLRNVASEGEGQILE [CLP2589],Titer (Bleed 2),[2]; [8],800000
same,Titer (Final Bleed),[2]; [8],"2560000, 2560000"
same,Titer (Bleed 2),[2]; [9],1600000
same,Titer (Final Bleed),[2]; [9],"2560000, 2560000"
NHLQGSDGQQSVKESKEHSCTK [CLP2592],Titer (Bleed 2),[2]; [8],25600
same,Titer (Final Bleed),[2]; [8],80000
same,Titer (Bleed 2),[2]; [9],12800
same,Titer (Final Bleed),[2]; [9],40000
NACGLYQKL [CLP 2495],Strong CTL Killing (listed as highly immunoreactive peptide),[3],NACGLYQKL
KLDKIGLNL [CLP 3372],Peptides eliciting strong IFN-γ ELISPOT activity,[5],KLDKIGLNL
same,Peptides eliciting CTL activity (peptide pulsed targets),[6],KLDKIGLNL
same,recognition of single peptides by CTL,[6],strongly recognized
NLFGGVVNP [CLP 3351],Peptides eliciting strong IFN-γ ELISPOT activity,[5],NLFGGVVNP
LLGGVLRRA [CLP 3369],Peptides eliciting strong IFN-γ ELISPOT activity,[5],LLGGVLRRA
same,Peptides eliciting CTL activity (peptide pulsed targets),[6],LLGGVLRRA
same,recognition of single peptides by CTL,[6],Moderately recognized
ATDGMKVSI [CLP 3054],"BFA5 peptides eliciting high IFN-γ release (>200 spots/100,000 cells)",[1]; Donor AP10,ATCGMKVSI
same,BFA5 peptides inducing CTL lysis of pulsed cells,[4],ATCGMKVSI
KAANVTLLT [CLP 3378],Peptides eliciting strong IFN-γ ELISPOT activity,[5],KAANVTLLT
same,Peptides eliciting CTL activity (peptide pulsed targets),[6],KAANVTLLT
same,recognition of single peptides by CTL,[6],strongly recognized
YLLHENQML [CLP 2997],"BFA5 peptides eliciting high IFN-γ release (>200 spots/100,000 cells)",[1]; Donor AP10,YLLHENCML
same,"BFA5 peptides eliciting high IFN-γ release (>200 spots/100,000 cells)",[1]; Donor AP31,YLLHENCML
same,BFA5 peptides inducing CTL lysis of pulsed cells,[4],YLLHENCML
SPKATEETGQAQSGQANCQGLS [CLP2590],Titer (Bleed 2),[2]; [8],12800
same,Titer (Final Bleed),[2]; [8],"40000, 40000"
same,Titer (Bleed 2),[2]; [9],6400
same,Titer (Final Bleed),[2]; [9],"40000, 40000"
MLAFSFPAA [CLP 2427],Strong CTL Killing (listed as highly immunoreactive peptide),[3],MLAFSFPAA
RNMLAFSFP [CLP 2425],Strong CTL Killing (listed as highly immunoreactive peptide),[3],RNMLAFSFP
SHGFGSPAV [CLP 3407],Peptides eliciting strong IFN-γ ELISPOT activity,[5],SHGFGSPAV
Cc1c(N)nc([C@H](CC(N)=O)NC[C@H](N)C(N)=O)nc1C(=O)N[C@H](C(=O)N[C@H](C)[C@@H](O)[C@H](C)C(=O)N[C@H](C(=O)NCCC1=N[C@@H](c2nc(C(=O)NCCCCN=C(N)N)cs2)CS1)[C@@H](C)O)[C@@H](O[C@@H]1O[C@@H](CO)[C@@H](O)[C@H](O)[C@@H]1O[C@H]1O[C@H](CO)[C@@H](O)[C@H](OC(N)=O)[C@@H]1O)c1cnc[nH]1 [Zeocin],confluency of surviving cells,[7]; 100 μg/ml,60-80%
same,confluency of surviving cells,[7]; 250 μg/ml,10%
same,live cells,"[7]; 500-1000 μg/ml, after three weeks",live cells were not observed
ELCSVRLTL [CLP 3050],IFN-γ secretion in T cells from both donors,[1],induce
same,CTL activity in T cells from both donors,[4],induce
NVTLLTSLV [CLP 3380],Peptides eliciting strong IFN-γ ELISPOT activity,[5],NVTLLTSLV
YLTEALKAM [CLP 3415],Peptides eliciting strong IFN-γ ELISPOT activity,[5],YLTEALKAM
LMDMQTFKA [CLP 2983],IFN-γ secretion in T cells from both donors,[1],induce
same,CTL activity in T cells from both donors,[4],induce
GLHRNNAQV [CLP 2520],Strong CTL Killing (listed as highly immunoreactive peptide),[3],GLHRNNAQV
SLPHAIEEV [CLP 3343],Peptides eliciting strong IFN-γ ELISPOT activity,[5],SLPHAIEEV
ILIDSGADI [CLP 3005],IFN-γ secretion in T cells from both donors,[1],induce
same,CTL activity in T cells from both donors,[4],induce
